In patent publication US11633393B2, “Tubulin binding compounds and therapeutic use thereof” (BeyondSpring Pharmaceuticals, Inc., priority 2017, dated 2023):

System: bovine brain tubulin
Test: Microtubule pelleting assay
Assay type: biochemical
Details: 100 μM compound, microtubules 2 mg/mL, 30 min at 37° C.
Experimental: A microtubule pelleting assay is used to test in vitro the direct effect of the tubulin binding compounds described herein such as the compounds listed in Tables 1, 2, and 3. […] Freshly polymerised/depolymerised bovine brain tubulin is supplemented with 34% Glycerol and 1 mM GTP and adjusted to a concentration of 4 mg/mL. Polymerization into microtubule is achieved by incubating the tubulin at 37° C. for 30 min.
To assess the effect of the compounds tested, a final concentration of 100 μM is added to the warm microtubules diluted at 2 mg/mL and after a 30 min incubation at 37° C., the reaction mixture is added on top of a glycerol cushion. After high speed centrifugation at 80,000 rpm for 15 min, the microtubule pellet fractions are separated from the supernatant fractions and analyzed by SDS-PAGE. In the presence of the 3 MDAs, the tubulin band is observed in the pellet fractions, which indicates the […] effect of these compounds. […] The test compounds generally show destabilizing effect on microtubules.

## CC(=O)O[C@H]1C(=O)[C@@]2(C)[C@H]([C@H](OC(=O)c3ccccc3)[C@]3(O)C[C@H](OC(=O)[C@H](O)[C@@H](NC(=O)c4ccccc4)c4ccccc4)C(C)=C1C3(C)C)[C@]1(OC(C)=O)CO[C@@H]1C[C@@H]2O [taxol]
  effect on microtubules (tubulin in pellet vs supernatant fractions, SDS-PAGE): increases the amount of tubulin observed in the pellet fraction
